Assay: Solubility of AP-325 in different solvents at ambient temperature
Format: physicochemical
Text: AP-325 is a pharmaceutical agent, which is currently in clinical development. […] For a better characterization of active ingredients with low solubility, a classification according to the BCS system (=Biopharmaceutics Classification System) was introduced (Guidance for Industry: Immediate release solid oral dosage forms and FDA, 1995). This BCS system distinguishes four categories based on the solubility and permeability of the active substance. At a pH value of below 7 AP-325 can be classified as a BCS class II drug substance. The low solubility of AP-325 negatively affects the absorption into the body after oral administration due to a limited absorption of the active agent in the small intestine (such as the jejunum or ileum), which is an essential absorption window for the uptake of a drug. Consequently, the therapeutic effect cannot be achieved.
FIG. 3: Solubility of AP-325 in different solvents at ambient temperature.

BCS classification (pH value of below 7): BCS class II
Solubility (physiological pH of 6.8 (phosphate buffer), ambient temperature): practically insoluble
SMILES: Cc1cc(NC(=O)/C(C#N)=C(\O)C2CC2)ccc1C(F)(F)F [AP-325]

Source: US20230226007A1, “NANOPARTICULATE COMPOSITION” (Algiax Pharmaceuticals GmbH, priority 2020, published 2023)
